In PMC10135378, “Synthesis of Novel N-Heterocyclic Carbene-Ruthenium (II) Complexes, “Precious” Tools with Antibacterial, Anticancer and Antioxidant Properties” (Antibiotics, 2023):

Columns and labels:
human topoisomerase II = target: T1, human topoisomerase II (Homo sapiens, UniProt P11388); test: hTopo II decatenation assay; type: biochemical; settings: 10 and 50 µM, 2 h at 37 °C, kDNA substrate
T1 construct: purchased TopoGEN, Port Orange, FL
Description: In Figure 4, only the results obtained at 50 μM concentration are reported (the same result was obtained at 10 μM) and as visible; under RANHC-V and -VI exposure, two bands related to the decatenation products at the bottom of the gel were detected (Figure 4, lanes 5 and 6), similarly to the CTRL reaction (Figure 4, lane 4).
Similarly, hTopoII decatenation assays were carried out incubating the kinetoplast DNA (kDNA) substrate with the hTopoII (TopoGEN, Port Orange, FL) and compounds RANHC-V and -VI or DMSO (CTRL) following the manufacturer’s procedures (TopoGEN, Port Orange, FL, USA), with some changes.
Figure 4 Human topoisomerase II decatenation assay. hTopo II was incubated with the vehicle alone (CTRL) or with the tested complexes RANHC-V and -VI at 50 µM for 2 h at 37 °C, using the kinetoplast DNA (kDNA) as the substrate. 1, linear DNA marker; 2, decatenated DNA marker; 3, kinetoplast DNA; 4, CTRL (DMSO); 5 and 6, Ru-NHC complexes RANHC-V and -VI (50 µM), respectively. The image is representative of three separate experiments.

MDA-MB-231 cells = test: TUNEL assay, apoptosis; type: cell-based, human; settings: complexes at their IC50 values, 24 h
Description: Thus, using the TUNEL assay we determined whether the Ru-NHC complexes RANHC-V and -VI were able to trigger apoptosis in the MDA-MB-231 cells. The latter were first exposed to the Ru complexes, used at their IC50 values for 24 h, and then subjected to the rTdT enzyme, as indicated in the experimental section.
A TUNEL assay was used for cells apoptosis detection, following the manufacturer’s protocols (CF™488A TUNEL Assay Apoptosis Detection Kit, Biotium, Hayward, CA, USA), with some changes. Briefly, cells were seeded and then processed, as described. DAPI (0.2 μg/mL, Sigma Aldrich, Milan, Italy) staining was adopted for nuclei. A fluorescence microscope (Leica DM 6000) was used for fluorescence detection (20x magnification). LAS-X software was used to acquire and process all the images that are representative of three different experiments.
Figure 5 TUNEL assay. MDA-MB-231 breast cancer cells were treated with Ru-NHC complexes RANHC-V and -VI at their IC50 values or with the vehicle (CTRL) for 24 h. Then, cells were incubated with rTdT enzyme and then observed and imaged under an inverted fluorescence microscope at 20× magnification (see Materials and Methods section). Panels (A): DAPI (λex/λem = 350/460 nm); Panels (B): CF^TM488A (λex/λem = 490/515 nm); Panels (C): show the overlay. Fields are representative of three independent experiments.

human topoisomerase I = target: T2, human topoisomerase I (Homo sapiens, UniProt P11387); test: hTopo I relaxation assay; type: biochemical; settings: 10 µM, 2 h at 37 °C, supercoiled pHOT1 substrate
T2 construct: purchased TopoGEN, Port Orange, FL, USA
T2 sequence (P11387 1-765): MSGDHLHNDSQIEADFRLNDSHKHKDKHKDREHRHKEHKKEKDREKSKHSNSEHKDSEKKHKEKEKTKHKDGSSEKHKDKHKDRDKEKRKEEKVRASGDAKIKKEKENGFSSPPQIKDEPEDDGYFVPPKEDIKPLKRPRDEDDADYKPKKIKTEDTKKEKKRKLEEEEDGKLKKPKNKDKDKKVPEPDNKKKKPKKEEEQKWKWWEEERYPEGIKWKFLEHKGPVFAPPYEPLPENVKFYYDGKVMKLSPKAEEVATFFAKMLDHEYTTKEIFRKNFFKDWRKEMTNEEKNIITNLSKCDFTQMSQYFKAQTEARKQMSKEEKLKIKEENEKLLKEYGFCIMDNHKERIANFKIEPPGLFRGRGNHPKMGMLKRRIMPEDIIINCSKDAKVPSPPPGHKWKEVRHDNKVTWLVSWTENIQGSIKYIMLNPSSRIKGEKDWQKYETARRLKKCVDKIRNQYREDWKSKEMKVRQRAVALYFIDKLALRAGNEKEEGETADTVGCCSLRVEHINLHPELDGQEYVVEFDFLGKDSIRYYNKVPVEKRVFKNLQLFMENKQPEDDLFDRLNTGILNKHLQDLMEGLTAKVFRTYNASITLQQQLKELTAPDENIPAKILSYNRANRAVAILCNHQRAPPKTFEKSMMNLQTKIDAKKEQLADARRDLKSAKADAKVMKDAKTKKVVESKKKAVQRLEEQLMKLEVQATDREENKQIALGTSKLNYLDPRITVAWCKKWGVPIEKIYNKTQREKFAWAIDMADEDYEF
Text: We performed the hTopo I relaxation assay using as a substrate the supercoiled plasmid pHOT1 and exposing the enzyme to our selected complexes or vehicle. […] Indeed, in lanes 4 and 5, corresponding to the enzymatic reactions in the presence of complexes RANHC-V or -VI, only the supercoiled DNA was present, noticeable as a single band in the lower portion of the agarose gel. Contrarily, in the CTRL (vehicle) reaction (Figure 3, lane 3), multiple bands related to the relaxed DNA products were detected.
hTopoI relaxation assays were done using the supercoiled pHOT1 as substrate, with the recombinant hTopoI (TopoGEN, Port Orange, FL, USA) and compounds RANHC-V and -VI or DMSO (CTRL) following the manufacturer’s protocol (TopoGEN, Port Orange, FL, USA), with some changes.
Figure 3 Human topoisomerase I […] assay. hTopo I was incubated with the vehicle alone (CTRL) or with the tested complexes RANHC-V and -VI at 10 µM for 2 h at 37 °C, using the supercoiled DNA pHOT1 as substrate. 1, relaxed DNA marker; 2, pHOT1; 3, CTRL (DMSO); 4 and 5, Ru-NHC complexes RANHC-V and -VI (10 µM), respectively. The image is representative of three separate experiments.

T1 sequence (P11388 whole entry): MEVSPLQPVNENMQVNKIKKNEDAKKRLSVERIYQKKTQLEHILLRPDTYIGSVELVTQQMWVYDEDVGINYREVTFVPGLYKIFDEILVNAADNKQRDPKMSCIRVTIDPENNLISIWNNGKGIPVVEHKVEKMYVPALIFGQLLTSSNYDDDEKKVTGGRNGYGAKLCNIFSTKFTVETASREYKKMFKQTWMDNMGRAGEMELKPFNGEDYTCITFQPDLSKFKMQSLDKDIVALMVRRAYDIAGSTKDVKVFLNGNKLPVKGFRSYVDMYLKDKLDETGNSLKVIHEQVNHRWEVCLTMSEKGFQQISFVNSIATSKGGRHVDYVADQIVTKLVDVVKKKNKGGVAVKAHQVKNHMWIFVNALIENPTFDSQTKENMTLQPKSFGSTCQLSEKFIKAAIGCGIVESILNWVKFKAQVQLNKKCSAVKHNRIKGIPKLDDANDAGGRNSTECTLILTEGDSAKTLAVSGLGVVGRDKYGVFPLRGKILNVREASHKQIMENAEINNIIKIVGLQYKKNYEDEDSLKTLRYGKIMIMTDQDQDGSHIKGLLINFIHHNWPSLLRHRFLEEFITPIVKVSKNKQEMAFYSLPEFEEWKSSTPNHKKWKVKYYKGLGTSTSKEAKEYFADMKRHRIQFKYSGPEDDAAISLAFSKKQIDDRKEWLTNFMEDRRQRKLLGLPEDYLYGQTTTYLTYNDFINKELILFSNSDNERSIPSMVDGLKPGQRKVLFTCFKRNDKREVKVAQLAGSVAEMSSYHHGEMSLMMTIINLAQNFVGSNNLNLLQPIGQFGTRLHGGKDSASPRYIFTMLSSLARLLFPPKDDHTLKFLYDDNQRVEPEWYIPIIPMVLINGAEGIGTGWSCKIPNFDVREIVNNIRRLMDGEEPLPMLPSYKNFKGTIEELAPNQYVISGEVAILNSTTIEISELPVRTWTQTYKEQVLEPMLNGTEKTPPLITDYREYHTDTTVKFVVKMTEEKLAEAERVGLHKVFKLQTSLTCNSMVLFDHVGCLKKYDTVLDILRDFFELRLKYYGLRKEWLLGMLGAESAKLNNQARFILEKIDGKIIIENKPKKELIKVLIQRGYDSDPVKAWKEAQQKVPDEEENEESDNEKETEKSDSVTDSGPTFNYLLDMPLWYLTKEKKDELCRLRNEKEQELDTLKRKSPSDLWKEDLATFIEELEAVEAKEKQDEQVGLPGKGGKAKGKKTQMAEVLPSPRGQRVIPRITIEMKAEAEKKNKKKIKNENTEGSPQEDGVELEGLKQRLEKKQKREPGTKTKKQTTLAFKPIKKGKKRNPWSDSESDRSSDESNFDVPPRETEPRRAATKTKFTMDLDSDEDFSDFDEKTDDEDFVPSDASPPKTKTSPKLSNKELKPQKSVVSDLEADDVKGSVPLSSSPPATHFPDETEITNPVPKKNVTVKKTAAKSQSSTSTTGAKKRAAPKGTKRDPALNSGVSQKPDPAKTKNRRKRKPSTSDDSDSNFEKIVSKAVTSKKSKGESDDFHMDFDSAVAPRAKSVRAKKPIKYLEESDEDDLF

Row | SMILES | inhibition of hTopo II activity (human topoisomerase II) | apoptosis (TUNEL) (MDA-MB-231 cells) | inhibition of hTopo I activity (human topoisomerase I)
1 | COC(Cn1[c](=[Ru]([Cl])[Cl])n(C)c2ccccc21)c1ccccc1.Cc1ccc(C(C)C)cc1 (stereo not drawn) [RANHC-VI] | absence of any inhibitory activity | TUNEL-positive | totally inhibit
2 | COC(Cn1c(Cl)c(Cl)n(C)[c]1=[Ru]([Cl])[Cl])c1ccccc1.Cc1ccc(C(C)C)cc1 (stereo not drawn) [RANHC-V] | absence of any inhibitory activity | TUNEL-positive | totally inhibit
